In patent US7118895B2, “Process for producing aglycon by using diglycosidase and flavor-improved food containing the aglycon and converting agent to be used in the process” (Amano Enzyme Inc., priority 2000, dated 2006):

Tested on: Crude diglycosidase
Assay: Examination of pH in the conversion into isoflavone aglycons by diglycosidase using soybean materials
Format: biochemical, Penicillium multicolor IAM7153
Parameters: Decomposition efficiency of genistin family in soymilk / Decomposition efficiency of genistin family in defatted soybean / Decomposition efficiency of daidzin family in defatted soybean: concentration or dose not given beside the values
Details: for Decomposition efficiency of genistin family in roasted soy flour: 55° C.
Procedure, shortened: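 Each soybean material (50 mg) is suspended and set to a pH between 2 and 11. Crude diglycosidase, adjusted to 1.88 AU/mL in enzyme solution of the same pH, is added, and the mixture is incubated at 55° C. Ethanol is added at 0, 1, 3 and 6 h, then supernatants go to HPLC.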

[1] = pH4.8, heat treatment of enzyme: no, reaction time 0 h
[2] = pH4.8, heat treatment of enzyme: no, reaction time 1 h
[3] = pH4.8, heat treatment of enzyme: no, reaction time 3 h
[4] = pH4.8, heat treatment of enzyme: no, reaction time 6 h
[5] = pH4.8, heat treatment of enzyme: yes, reaction time 6 h
[6] = pH6.6, heat treatment of enzyme: no, reaction time 0 h
[7] = pH6.6, heat treatment of enzyme: no, reaction time 1 h
[8] = pH6.6, heat treatment of enzyme: no, reaction time 3 h
[9] = pH6.6, heat treatment of enzyme: no, reaction time 6 h
[10] = pH6.6, heat treatment of enzyme: yes, reaction time 6 h

CC(=O)OC[C@H]1O[C@@H](Oc2cc(O)c3c(=O)c(-c4ccc(O)cc4)coc3c2)[C@H](O)[C@@H](O)[C@@H]1O [acetylgenistin, 6″-O-acetylgenistin]
Decomposition efficiency of genistin family in concentrated soybean protein (pH1.6, heat treatment of enzyme: no, reaction time 0 h): 42.5% | Decomposition efficiency of genistin family in concentrated soybean protein (pH1.6, heat treatment of enzyme: no, reaction time 1 h): 42.2% | Decomposition efficiency of genistin family in concentrated soybean protein (pH1.6, heat treatment of enzyme: no, reaction time 3 h): 40.6% | Decomposition efficiency of genistin family in concentrated soybean protein (pH1.6, heat treatment of enzyme: no, reaction time 6 h): 38.9% | Decomposition efficiency of genistin family in concentrated soybean protein (pH1.6, heat treatment of enzyme: yes, reaction time 6 h): 37.7% | Decomposition efficiency of genistin family in roasted soy flour (pH2, heat treatment of enzyme no, reaction time 0 h): 45.2 | Decomposition efficiency of genistin family in roasted soy flour (pH2, heat treatment of enzyme no, reaction time 1 h): 45.0 | Decomposition efficiency of genistin family in roasted soy flour (pH2, heat treatment of enzyme no, reaction time 3 h): 43.1 | Decomposition efficiency of genistin family in roasted soy flour (pH2, heat treatment of enzyme no, reaction time 6 h): 40.7 | Decomposition efficiency of genistin family in roasted soy flour (pH2, heat treatment of enzyme yes, reaction time 6 h): 41.2 | Decomposition efficiency of genistin family in soymilk (pH2.3, heat treatment of enzyme: no, reaction time 0 h): 0.6% | Decomposition efficiency of genistin family in soymilk (pH2.3, heat treatment of enzyme: no, reaction time 1 h): 0.7% | Decomposition efficiency of genistin family in soymilk (pH2.3, heat treatment of enzyme: no, reaction time 3 h): 0.8% | Decomposition efficiency of genistin family in soymilk (pH2.3, heat treatment of enzyme: no, reaction time 6 h): 0.6% | Decomposition efficiency of genistin family in soymilk (pH2.3, heat treatment of enzyme: yes, reaction time 6 h): 0.6% | Decomposition efficiency of genistin family in defatted soybean (pH2.6, heat treatment of enzyme: no, reaction time 0 h): 1.8% | Decomposition efficiency of genistin family in defatted soybean (pH2.6, heat treatment of enzyme: no, reaction time 1 h): 1.7% | Decomposition efficiency of genistin family in defatted soybean (pH2.6, heat treatment of enzyme: no, reaction time 3 h): 1.7% | Decomposition efficiency of genistin family in defatted soybean (pH2.6, heat treatment of enzyme: no, reaction time 6 h): 1.9% | Decomposition efficiency of genistin family in defatted soybean (pH2.6, heat treatment of enzyme: yes, reaction time 6 h): 1.6% | Decomposition efficiency of genistin family in concentrated soybean protein (pH2.7, heat treatment of enzyme: no, reaction time 0 h): 42.5% | Decomposition efficiency of genistin family in concentrated soybean protein (pH2.7, heat treatment of enzyme: no, reaction time 1 h): 44.3% | Decomposition efficiency of genistin family in concentrated soybean protein (pH2.7, heat treatment of enzyme: no, reaction time 3 h): 43.7% | Decomposition efficiency of genistin family in concentrated soybean protein (pH2.7, heat treatment of enzyme: no, reaction time 6 h): 44.0% | Decomposition efficiency of genistin family in concentrated soybean protein (pH2.7, heat treatment of enzyme: yes, reaction time 6 h): 42.5% | Decomposition efficiency of genistin family in roasted soy flour (pH3, heat treatment of enzyme no, reaction time 0 h): 45.2 | Decomposition efficiency of genistin family in roasted soy flour (pH3, heat treatment of enzyme no, reaction time 1 h): 45.2 | Decomposition efficiency of genistin family in roasted soy flour (pH3, heat treatment of enzyme no, reaction time 3 h): 41.9 | Decomposition efficiency of genistin family in roasted soy flour (pH3, heat treatment of enzyme no, reaction time 6 h): 43.5 | Decomposition efficiency of genistin family in roasted soy flour (pH3, heat treatment of enzyme yes, reaction time 6 h): 45.1 | Decomposition efficiency of genistin family in defatted soybean (pH3.4, heat treatment of enzyme: no, reaction time 0 h): 1.8% | Decomposition efficiency of genistin family in defatted soybean (pH3.4, heat treatment of enzyme: no, reaction time 1 h): 1.5% | Decomposition efficiency of genistin family in defatted soybean (pH3.4, heat treatment of enzyme: no, reaction time 3 h): 1.1% | Decomposition efficiency of genistin family in defatted soybean (pH3.4, heat treatment of enzyme: no, reaction time 6 h): 0.8% | Decomposition efficiency of genistin family in defatted soybean (pH3.4, heat treatment of enzyme: yes, reaction time 6 h): 1.8% | Decomposition efficiency of genistin family in soymilk (pH3.5, heat treatment of enzyme: no, reaction time 0 h): 0.6% | Decomposition efficiency of genistin family in soymilk (pH3.5, heat treatment of enzyme: no, reaction time 1 h): not detected | Decomposition efficiency of genistin family in soymilk (pH3.5, heat treatment of enzyme: no, reaction time 3 h): not detected | Decomposition efficiency of genistin family in soymilk (pH3.5, heat treatment of enzyme: no, reaction time 6 h): not detected | Decomposition efficiency of genistin family in soymilk (pH3.5, heat treatment of enzyme: yes, reaction time 6 h): 0.5% | Decomposition efficiency of genistin family in concentrated soybean protein (pH3.7, heat treatment of enzyme: no, reaction time 0 h): 43.1% | Decomposition efficiency of genistin family in concentrated soybean protein (pH3.7, heat treatment of enzyme: no, reaction time 1 h): 43.5% | Decomposition efficiency of genistin family in concentrated soybean protein (pH3.7, heat treatment of enzyme: no, reaction time 3 h): 36.9% | Decomposition efficiency of genistin family in concentrated soybean protein (pH3.7, heat treatment of enzyme: no, reaction time 6 h): 30.7% | Decomposition efficiency of genistin family in concentrated soybean protein (pH3.7, heat treatment of enzyme: yes, reaction time 6 h): 43.0% | Decomposition efficiency of genistin family in roasted soy flour (pH4, heat treatment of enzyme no, reaction time 0 h): 45.4 | Decomposition efficiency of genistin family in roasted soy flour (pH4, heat treatment of enzyme no, reaction time 1 h): 36.3 | Decomposition efficiency of genistin family in roasted soy flour (pH4, heat treatment of enzyme no, reaction time 3 h): 23.4 | Decomposition efficiency of genistin family in roasted soy flour (pH4, heat treatment of enzyme no, reaction time 6 h): 13.4 | Decomposition efficiency of genistin family in roasted soy flour (pH4, heat treatment of enzyme yes, reaction time 6 h): 45.4 | Decomposition efficiency of genistin family in defatted soybean [1]: 1.8% | Decomposition efficiency of genistin family in soymilk [1]: 0.5% | Decomposition efficiency of genistin family in defatted soybean [2]: 1.0% | Decomposition efficiency of genistin family in soymilk [2]: not detected | Decomposition efficiency of genistin family in defatted soybean [3]: 0.6% | Decomposition efficiency of genistin family in soymilk [3]: not detected | Decomposition efficiency of genistin family in defatted soybean [4]: 0.4% | Decomposition efficiency of genistin family in soymilk [4]: not detected | Decomposition efficiency of genistin family in defatted soybean [5]: 1.3% | Decomposition efficiency of genistin family in soymilk [5]: 0.6% | Decomposition efficiency of genistin family in roasted soy flour (pH5, heat treatment of enzyme no, reaction time 0 h): 45.4 | Decomposition efficiency of genistin family in roasted soy flour (pH5, heat treatment of enzyme no, reaction time 1 h): 39.9 | Decomposition efficiency of genistin family in roasted soy flour (pH5, heat treatment of enzyme no, reaction time 3 h): 26.9 | Decomposition efficiency of genistin family in roasted soy flour (pH5, heat treatment of enzyme no, reaction time 6 h): 17.6 | Decomposition efficiency of genistin family in roasted soy flour (pH5, heat treatment of enzyme yes, reaction time 6 h): 42.0 | Decomposition efficiency of genistin family in concentrated soybean protein (pH5.1, heat treatment of enzyme: no, reaction time 0 h): 43.1% | Decomposition efficiency of genistin family in concentrated soybean protein (pH5.1, heat treatment of enzyme: no, reaction time 1 h): 45.2% | Decomposition efficiency of genistin family in concentrated soybean protein (pH5.1, heat treatment of enzyme: no, reaction time 3 h): 40.2% | Decomposition efficiency of genistin family in concentrated soybean protein (pH5.1, heat treatment of enzyme: no, reaction time 6 h): 35.6% | Decomposition efficiency of genistin family in concentrated soybean protein (pH5.1, heat treatment of enzyme: yes, reaction time 6 h): 42.4% | Decomposition efficiency of genistin family in defatted soybean (pH5.4, heat treatment of enzyme: no, reaction time 0 h): 1.8% | Decomposition efficiency of genistin family in defatted soybean (pH5.4, heat treatment of enzyme: no, reaction time 1 h): 0.5% | Decomposition efficiency of genistin family in defatted soybean (pH5.4, heat treatment of enzyme: no, reaction time 3 h): not detected | Decomposition efficiency of genistin family in defatted soybean (pH5.4, heat treatment of enzyme: no, reaction time 6 h): not detected | Decomposition efficiency of genistin family in defatted soybean (pH5.4, heat treatment of enzyme: yes, reaction time 6 h): not detected | Decomposition efficiency of genistin family in soymilk (pH6.2, heat treatment of enzyme: no, reaction time 0 h): 0.5% | Decomposition efficiency of genistin family in soymilk (pH6.2, heat treatment of enzyme: no, reaction time 1 h): not detected | Decomposition efficiency of genistin family in soymilk (pH6.2, heat treatment of enzyme: no, reaction time 3 h): not detected | Decomposition efficiency of genistin family in soymilk (pH6.2, heat treatment of enzyme: no, reaction time 6 h): not detected | Decomposition efficiency of genistin family in soymilk (pH6.2, heat treatment of enzyme: yes, reaction time 6 h): 0.6% | Decomposition efficiency of genistin family in roasted soy flour (pH6.5, heat treatment of enzyme no, reaction time 0 h): 45.8 | Decomposition efficiency of genistin family in roasted soy flour (pH6.5, heat treatment of enzyme no, reaction time 1 h): 45.3 | Decomposition efficiency of genistin family in roasted soy flour (pH6.5, heat treatment of enzyme no, reaction time 3 h): 38.8 | Decomposition efficiency of genistin family in roasted soy flour (pH6.5, heat treatment of enzyme no, reaction time 6 h): 34.0 | Decomposition efficiency of genistin family in roasted soy flour (pH6.5, heat treatment of enzyme yes, reaction time 6 h): 39.2 | Decomposition efficiency of genistin family in concentrated soybean protein [6]: 43.0% | Decomposition efficiency of genistin family in defatted soybean [6]: 1.7% | Decomposition efficiency of genistin family in concentrated soybean protein [7]: 43.6% | Decomposition efficiency of genistin family in defatted soybean [7]: 0.6% | Decomposition efficiency of genistin family in concentrated soybean protein [8]: 42.8% | Decomposition efficiency of genistin family in defatted soybean [8]: 0.3% | Decomposition efficiency of genistin family in concentrated soybean protein [9]: 41.0% | Decomposition efficiency of genistin family in defatted soybean [9]: 0.2% | Decomposition efficiency of genistin family in concentrated soybean protein [10]: 40.6% | Decomposition efficiency of genistin family in defatted soybean [10]: 0.2% | Decomposition efficiency of genistin family in soymilk (pH7.2, heat treatment of enzyme: no, reaction time 0 h): 0.7% | Decomposition efficiency of genistin family in soymilk (pH7.2, heat treatment of enzyme: no, reaction time 1 h): not detected | Decomposition efficiency of genistin family in soymilk (pH7.2, heat treatment of enzyme: no, reaction time 3 h): not detected | Decomposition efficiency of genistin family in soymilk (pH7.2, heat treatment of enzyme: no, reaction time 6 h): not detected | Decomposition efficiency of genistin family in soymilk (pH7.2, heat treatment of enzyme: yes, reaction time 6 h): 0.7% | Decomposition efficiency of genistin family in defatted soybean (pH7.8, heat treatment of enzyme: no, reaction time 0 h): 1.6% | Decomposition efficiency of genistin family in defatted soybean (pH7.8, heat treatment of enzyme: no, reaction time 1 h): 1.0% | Decomposition efficiency of genistin family in defatted soybean (pH7.8, heat treatment of enzyme: no, reaction time 3 h): 0.8% | Decomposition efficiency of genistin family in defatted soybean (pH7.8, heat treatment of enzyme: no, reaction time 6 h): 0.7% | Decomposition efficiency of genistin family in defatted soybean (pH7.8, heat treatment of enzyme: yes, reaction time 6 h): 0.6% | Decomposition efficiency of genistin family in roasted soy flour (pH8.5, heat treatment of enzyme no, reaction time 0 h): 39.5 | Decomposition efficiency of genistin family in roasted soy flour (pH8.5, heat treatment of enzyme no, reaction time 1 h): 39.5 | Decomposition efficiency of genistin family in roasted soy flour (pH8.5, heat treatment of enzyme no, reaction time 3 h): 39.2 | Decomposition efficiency of genistin family in roasted soy flour (pH8.5, heat treatment of enzyme no, reaction time 6 h): 37.3 | Decomposition efficiency of genistin family in roasted soy flour (pH8.5, heat treatment of enzyme yes, reaction time 6 h): 35.2 | Decomposition efficiency of genistin family in concentrated soybean protein (pH8.6, heat treatment of enzyme: no, reaction time 0 h): 39.7% | Decomposition efficiency of genistin family in concentrated soybean protein (pH8.6, heat treatment of enzyme: no, reaction time 1 h): 38.8% | Decomposition efficiency of genistin family in concentrated soybean protein (pH8.6, heat treatment of enzyme: no, reaction time 3 h): 39.0% | Decomposition efficiency of genistin family in concentrated soybean protein (pH8.6, heat treatment of enzyme: no, reaction time 6 h): 38.5% | Decomposition efficiency of genistin family in concentrated soybean protein (pH8.6, heat treatment of enzyme: yes, reaction time 6 h): 37.6% | Decomposition efficiency of genistin family in soymilk (pH11.6, heat treatment of enzyme: no, reaction time 0 h): 0.5% | Decomposition efficiency of genistin family in soymilk (pH11.6, heat treatment of enzyme: no, reaction time 1 h): not detected | Decomposition efficiency of genistin family in soymilk (pH11.6, heat treatment of enzyme: no, reaction time 3 h): not detected | Decomposition efficiency of genistin family in soymilk (pH11.6, heat treatment of enzyme: no, reaction time 6 h): not detected | Decomposition efficiency of genistin family in soymilk (pH11.6, heat treatment of enzyme: yes, reaction time 6 h): 0.9%
